Results taken from publication PMC10907374, “G2019S selective LRRK2 kinase inhibitor abrogates mitochondrial DNA damage” (NPJ Parkinson's Disease, 2024).
Values joined by “and” are separate entries in the source; they are usually repeats but may differ in a detail not shown here. Equal values may be shown once. “Also recorded” adds a separate entry of the source.

Columns and labels:
healthy control LCLs = assay: Mito DNADX mtDNA damage and mtDNA copy number in healthy control-derived LCLs; format: cell-based, human; conditions: 10 and 100 nM, 2 h
Method: (§1) PD patient G2019S LRRK2 (n = 2) and healthy subject control (n = 2)-derived LCLs were obtained from the NINDS Coriell biorepository (ID numbers are ND00011, ND00264, ND01618, ND02559). There was not a statistical difference in the ages between the PD patient and healthy control subjects (p = 0.92). LCLs were cultured at 37 °C, 5% CO2, in RPMI-1640 (Sigma-Aldrich, R8758), 15% heat-inactivated fetal bovine serum (VWR Seradigm, 97068-091) and 0.5% Penicillin/Streptomycin (Corning, 30-002-CI). […] All in vitro experiments were repeated at least three times from distinct samples.
The tool compound EB-42168 was discovered as part of a small molecule discovery program aimed at identifying LRRK2 kinase inhibitors that are selective for the pathogenic G2019S LRRK2 variant. […] MLi‐2 inhibits WT LRRK2 ~1000‐fold more than EB‐42168[20].
Cells were collected and the nuclei and mitochondria were isolated as previously described. DNA was extracted from LRRK2-WT and G2019S-LRRK2 cells, and wild-type and LRRK2^G2019S/G2019S KI cells using QuickGene DNA Whole Blood Kit L (Autogen, fk-dbl). PD patient LRRK2 G2019S and healthy subject control-derived LCL DNA was extracted using the QuickGene DNA Tissue Kit L (Autogen, fk-dtl), utilizing a semi-automated system (Autogen, QuickGene-610L). For the Autogen system, the pellet was resuspended in 2 ml of 1X PBS, and the standard manufacturer’s protocol was conducted as if the cell suspension was whole blood. DNA was eluted with EDTA-free buffer, and quality was assessed using a Spectradrop microvolume microplate (Molecular Devices). Double-stranded DNA was quantified using Quant-iT Picogreen dsDNA assay (Thermo Fisher) as previously described.
DNA damage in the mitochondrial genome was measured utilizing Mito DNADX, an assay that we recently developed and described, currently the most robust way of measuring damage in mtDNA[39],[82]. The Mito DNADX assay combines optimized polymerase chain reaction (PCR) parameters using a high-fidelity DNA polymerase and a fluorescent dye that binds to double-stranded DNA that permits the real-time quantification of DNA damage in distinct loci in a 96-well platform. The premise of the Mito DNADX assay involves amplification of a specific mitochondrial PCR fragment in which less PCR product will be amplified when mtDNA damage or lesions block the ability of the DNA polymerase to replicate. As such, mtDNA damage or mtDNA repair intermediates that slow down or impair DNA polymerase progression will be detected. […] Briefly, 15 ng of DNA was used to amplify long or short amplicons of the mitochondrial genome (as determined by primer sets). […] Average lesion frequency is calculated as described. […] Each biological DNA sample was analyzed in technical triplicate. […]

[1] = tested on: LRRK2 in heterozygous G2019S LRRK2 PD patient-derived LCLs; assay: LRRK2 pSer935 western immunoblot in heterozygous G2019S LRRK2 PD patient-derived LCLs; format: cell-based, human; conditions: for decrease in LRRK2 pSer935 levels: heterozygous G2019S LRRK2 PD LCLs
Method: as §1, with “There was not a statistical difference in the ages between the PD patient and healthy control subjects (p = 0.92).” left out
For LRRK2-WT or G2019S-LRRK2, ~1.5 million cells were pelleted and resuspended in 75 μl of lysis buffer [(RIPA Buffer (Sigma-Aldrich, R0278-50ML), protease inhibitor cocktail (Sigma-Aldrich, P8340), and Halt phosphatase inhibitor cocktail (Thermo Fisher, 78420)]. For LCLs, five million cells were pelleted and resuspended in 100 µl of lysis buffer. For both types of cells lysates were centrifuged at 10,000 × g after a 10 min incubation on ice, and the supernatant was collected. Protein was quantified using the DC protein assay (Bio-Rad, 5000112). In total, 50 μg of protein was loaded for HEK293 LRRK2-WT or G2019S-LRRK2 cells. Due to the differing endogenous LRRK2 levels, 40 µg of ND02559, 60 µg of ND00264, or 100 µg of ND00011 and ND01618 of protein sample was loaded. Protein samples were incubated at 100 °C for 5 min with NuPAGE Sample loading dye (Thermo Fisher, NP0007) and dithiothreitol as reducing agent. After 4–20% SDS-PAGE, the blots were blocked in 5% w/v nonfat dry milk in 1X PBST (0.05% Tween 20). For our investigations, the following primary antibodies were used: mouse anti-LRRK2 N241a (Antibodies INC, 75-253, 1:5000 for HEK293 cells and 1:2000 for LCLs), rabbit anti-LRRK2 pS935 (Abcam, ab133450, 1:10,000 for HEK293 cells and 1:2000 for LCLs), mouse anti-β-actin (Novus, 8H10D10, 1:10,000), and rabbit anti-LRRK2 pS1292 (Abcam, ab203181, 1:500). The blots were then probed with fluorescent-labeled secondary antibodies, IRDye donkey anti-mouse and anti-rabbit at 1:10,000 (LI-COR, 926-32212, 926-68072), and scanned using an Odyssey Imaging scanner (LI-COR). Fluorescence intensities were quantified using ImageStudio Lite software (LI-COR), and the signal from the protein of interest was normalized to the fluorescence intensity of either LRRK2 or β-actin. Values were averaged from at least three technical replicates within a cell line, or two biological replicates (two healthy control lines and two PD LCLs). All blots were derived from the same experiment and processed in parallel.

[2] = tested on: heterozygous G2019S LRRK2 PD patient-derived LCLs; design: method as in PMID 33057100; conditions: acute treatment (1.5 h) ref 49; cited from earlier work

SMILES	mtDNA copy number (healthy control LCLs)	mtDNA damage (healthy control LCLs)	decrease in LRRK2 pSer935 levels ([1]; 10 nM, 2 h)	decrease in LRRK2 pSer935 levels ([1]; 100 nM, 2 h) [%]	decrease of LRRK2 pSer935 ([1]; human PD patient-derived cells heterozygous for G2019S LRRK2, concentration not given)	mtDNA damage [2]	effect on LRRK2 pSer935 (in words) ([1]; G2019S LRRK2 PD LCLs, 10 and 100 nM, 2 h)
CC1=C(C(=O)Nc2ccc3[nH]nc(-c4ccnc(N5CCOCC5)c4)c3c2)C(C)(C)n2nnnc2N1C [EB-42168]	No differences	without an effect	~ 30% and 25%	~40	about 40%	–	–
C[C@@H]1CN(c2cc(-c3n[nH]c4ccc(OC5(C)CC5)cc34)ncn2)C[C@H](C)O1 [MLi-2, reference compound]	No differences	no effect	–	–	–	restored mtDNA damage to healthy control levels	almost completely; also recorded: almost complete
